Assay results published in US20020151581A1, “Glucose and lipid lowering compounds” (priority 1998, published 2002).
Where two headings read alike, the source gives them in different places.

Key:
[1] = biological target: T1, recombinant hormone-sensitive lipase (Homo sapiens, UniProt Q05469); assay: Inhibition of recombinant (purified) hormone-sensitive lipase on glycerol-stabilized triolein; type: biochemical; conditions: test compound 100 μM, read-out: % inhibition Purified HSL
T1 construct: made in house
T1 sequence (Q05469 1-1076): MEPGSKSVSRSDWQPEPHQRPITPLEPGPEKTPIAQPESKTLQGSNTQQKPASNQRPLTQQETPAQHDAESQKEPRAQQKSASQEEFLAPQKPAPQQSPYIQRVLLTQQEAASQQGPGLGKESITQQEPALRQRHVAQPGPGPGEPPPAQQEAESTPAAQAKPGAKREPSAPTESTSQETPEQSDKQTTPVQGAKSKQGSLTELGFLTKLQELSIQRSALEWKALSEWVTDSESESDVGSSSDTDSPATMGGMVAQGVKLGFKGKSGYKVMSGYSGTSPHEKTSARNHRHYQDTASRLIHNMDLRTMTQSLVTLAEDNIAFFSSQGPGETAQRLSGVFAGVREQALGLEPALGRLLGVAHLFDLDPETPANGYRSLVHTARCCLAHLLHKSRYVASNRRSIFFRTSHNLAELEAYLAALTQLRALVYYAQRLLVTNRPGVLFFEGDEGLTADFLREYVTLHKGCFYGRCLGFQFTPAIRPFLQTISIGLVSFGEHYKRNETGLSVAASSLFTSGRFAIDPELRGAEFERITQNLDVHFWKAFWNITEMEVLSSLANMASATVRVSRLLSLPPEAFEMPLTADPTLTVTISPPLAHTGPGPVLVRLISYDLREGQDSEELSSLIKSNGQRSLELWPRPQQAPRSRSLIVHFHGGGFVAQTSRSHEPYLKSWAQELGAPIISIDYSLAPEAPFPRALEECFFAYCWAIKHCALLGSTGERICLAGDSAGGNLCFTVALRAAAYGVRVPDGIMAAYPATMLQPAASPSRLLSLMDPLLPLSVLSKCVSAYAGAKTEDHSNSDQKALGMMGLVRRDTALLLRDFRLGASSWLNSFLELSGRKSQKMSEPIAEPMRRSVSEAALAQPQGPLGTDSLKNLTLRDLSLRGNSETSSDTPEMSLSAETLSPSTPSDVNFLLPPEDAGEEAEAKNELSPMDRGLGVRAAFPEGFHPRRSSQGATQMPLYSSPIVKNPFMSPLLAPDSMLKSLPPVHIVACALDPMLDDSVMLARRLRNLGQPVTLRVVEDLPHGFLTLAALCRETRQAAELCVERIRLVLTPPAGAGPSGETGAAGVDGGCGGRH
Protocol: Recombinant hormone-sensitive lipase protein isolated from a bacterial expression vector was pre-incubated with a compound of the invention (e.g., 100 μM) prior to the addition of substrate, emulsified triolein phosphatidylcholine/phosphatidylinositol (PC/PI), to initiate the reaction. At various time points, aliquots of the reaction were taken, and the level of glycerol used as an index of enzyme activity. Pharmacological specificity is determined by incubating test compound with other mammalian and non-mammalian lipase enzyme systems to assess inhibition of activity. […]
In a similar manner to that described in Example 4 above, 2α-benzoyloxy-4,5,7,8,11αH-eudesman-8,12-olide at 100 μM was evaluated for ability to activity of recombinant hormone-sensitive lipase and hormone-sensitive lipase derived from a preparation of 3T3-cell lysate on glycerol-stabilized triolein.

- melting point: 181 to 183 °C
- inhibition at 100 µM ([1]; triolein 30 μM): 77%
- inhibition at 100 µM ([1]; triolein 67 μM): 78%
- inhibition at 100 µM ([1]; triolein 100 μM): 82%
- inhibition at 100 µM ([1]; triolein 201 μM): 64%
- inhibition at 100 µM ([1]; triolein 400 μM): 50%
- inhibition at 100 µM ([1]; triolein 601 μM): 40%
- inhibition at 100 µM ([1]; triolein 800 μM): 18%
- inhibition at 100 µM ([1]; triolein 1000 μM): 27%
SMILES: CC1C[C@H](OC(=O)c2ccccc2)C[C@]2(C)C[C@H]3OC(=O)[C@@H](C)[C@H]3CC12 (stereo partly drawn) [2α-benzoyloxy-4,5,7,8,11αH-eudesman-8,12-olide]
